IC50 data for nine molecules are collected here from patent US20070191393A1, “Macrocyclic anilinopyrimidines with substituted sulphoximine as selective inhibitors of cell cycle kinases” (priority 2006, published 2007).

Some results are limits rather than exact numbers.

As a reminder, the IC50 is the concentration needed to halve the response being measured. Read a low IC50 as greater potency.

Holding throughout (type): biochemical
The target of one experiment is T1, Aurora-A (Homo sapiens, UniProt O14965).
T1 construct: purchased Upstate; host or cells: Sf21 insect cells
T1 sequence (O14965 1-403): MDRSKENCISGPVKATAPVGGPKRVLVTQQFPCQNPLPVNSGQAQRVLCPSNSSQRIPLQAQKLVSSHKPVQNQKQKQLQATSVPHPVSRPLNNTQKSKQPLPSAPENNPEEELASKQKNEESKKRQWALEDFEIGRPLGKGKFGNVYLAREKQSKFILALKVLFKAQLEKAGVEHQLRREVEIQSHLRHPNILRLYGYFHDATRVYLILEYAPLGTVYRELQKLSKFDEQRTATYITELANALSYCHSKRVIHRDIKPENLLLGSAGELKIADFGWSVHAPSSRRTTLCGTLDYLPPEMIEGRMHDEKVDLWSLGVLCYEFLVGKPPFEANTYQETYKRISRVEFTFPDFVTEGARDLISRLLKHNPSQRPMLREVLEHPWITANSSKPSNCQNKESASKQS
Briefly: Aurora-A kinase assay. The conditions noted are these: 8 μM ATP, 22° C., 90 min. The protocol:
Recombinant Aurora-A protein, expressed in Sf21 insect cells, was purchased from Upstate. The kinase substrate used was the biotinylated peptide having the amino acid sequence biotin-LNYNRRLSLGPMF, which was purchased from Jerini A G in Berlin.
Aurora-A [15 nM in the test mixture, test volume 5 μl] was incubated in the presence of various concentrations of test substances (0 μM and 10 measurement points within the range 0.001-20 μM in duplicate) in assay buffer [25 mM HEPES pH 7.4, 3 mM MnCl2, 5 mM MnCl2, 0.1 mM Na ortho-vanadate, 2.0 mM dithiothreitol, 0.05% bovine serum albumin (BSA), 0.01% Triton X-100, 8 μM ATP, 4 nCi/μl gama-P33-ATP, 5.0 μM substrate peptide biotin-LNYNRRLSLGPMF, 1.0% dimethyl sulphoxide] at 22° C. for 90 min. The reaction was stopped by adding 12.5 μl of an EDTA/detection solution [16 mM EDTA, 40 mM ATP, 0.08% Triton X-100, 4 mg/ml PVT streptavidin SPA beads (from Amersham)]. After incubation for 10 minutes, the SPA beads were pelleted by centrifugation at 1000×G for 10 minutes. Measurement took place in a PerkinElmer Topcount scintillation counter.
The measured data were normalized to 0% inhibition (enzyme reaction without inhibitor) and 100% inhibition (enzyme reaction in the presence of 0.1 μM staurosporine (from Sigma)). The IC50 values were determined by means of a 4-parameter fit using the company's own software.

Another experiment addresses T2, CDK2/CycE (Homo sapiens, UniProt P24941).
T2 construct: GST; purchased ProQinase GmbH, Freiburg; host or cells: baculovirus-infected Sf9 insect cells
Description: CDK2/CycE kinase assay. The following applies: 0.5 μM ATP, 22° C., 10 min. On the procedure:
Recombinant CDK2- and CycE-GST fusion proteins, purified from baculovirus-infected insect cells (Sf9), were purchased from ProQinase GmbH, Freiburg. The histone IIIS used as kinase substrate was purchased from Sigma. CDK2/CycE (50 ng/measurement point) was incubated in the presence of various concentrations of test substances (0 μM, and within the range 0.01-100 μM) in assay buffer [50 mM Tris/HCl pH 8.0, 10 mM MgCl2, 0.1 mM Na ortho-vanadate, 1.0 mM dithiothreitol, 0.5 μM ATP, 10 μg/measurement point histone IIIS, 0.2 μCi/measurement point ^33P-gamma ATP, 0.05% NP40, 1.25% dimethyl sulphoxide] at 22° C. for 10 min. The reaction was stopped by adding EDTA solution (250 mM, pH 8.0, 15 μl/measurement point).
15 μl of each reaction mixture were loaded onto P30 filter strips (from Wallac), and non-incorporated ^33P-ATP was removed by washing the filter strips three times in 0.5% strength phosphoric acid for 10 min each time.
After the filter strips had been dried at 70° C. for 1 hour, the filter strips were covered with scintillator strips (MeltiLex™ A, from Wallac) and baked at 90° C. for 1 hour. The amount of incorporated ^33P (substrate phosphorylation) was determined by scintillation measurement in a gamma radiation counter (Wallac).

Another experiment has as its target T3, Chk1 (Homo sapiens, UniProt O14757).
T3 construct: made in house; host or cells: Sf9 insect cells
T3 sequence (O14757 1-476): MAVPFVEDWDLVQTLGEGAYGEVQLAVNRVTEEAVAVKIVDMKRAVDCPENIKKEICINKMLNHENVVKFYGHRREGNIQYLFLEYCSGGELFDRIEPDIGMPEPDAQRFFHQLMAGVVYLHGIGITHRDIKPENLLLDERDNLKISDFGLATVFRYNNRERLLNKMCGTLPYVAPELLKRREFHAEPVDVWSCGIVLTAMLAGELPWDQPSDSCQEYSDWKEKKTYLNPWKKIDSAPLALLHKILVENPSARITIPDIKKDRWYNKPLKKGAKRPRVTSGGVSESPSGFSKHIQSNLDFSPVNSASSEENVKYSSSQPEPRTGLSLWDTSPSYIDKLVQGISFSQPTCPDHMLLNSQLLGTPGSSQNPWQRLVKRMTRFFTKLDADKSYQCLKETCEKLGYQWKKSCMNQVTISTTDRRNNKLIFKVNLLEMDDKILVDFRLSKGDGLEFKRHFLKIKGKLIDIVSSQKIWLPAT
Description: Chk1 kinase assay. The conditions noted are these: 10 μM ATP, 22° C., 60 min. The protocol:
Recombinant Chk1 protein was expressed in Sf9 insect cells and then purified. The kinase substrate used was the biotinylated peptide having the amino acid sequence biotin-ALKLVRTPSFVITAK, which was purchased from Biosynthan GmbH in Berlin.
Chk1 [0.11 μg/ml in the test mixture, test volume 5 μl] was incubated in the presence of various concentrations of test substances (0 μM, and 10 measurement points within the range 0.001-20 μM in duplicate) in assay buffer [50 mM HEPES pH 7.5, 10 mM MgCl2, […], 0.1 mM Na ortho-vanadate, 1.0 mM dithiothreitol, 1 tablet/2.5 ml complete protease inhibitor (from Roche), 10 μM ATP, 1.0 μM substrate peptide biotin-ALKLVRTPSFVITAK, 1.0% dimethyl sulphoxide] at 22° C. for 60 min. The reaction was stopped by adding 5 μl of an EDTA/detection solution [100 mM EDTA, 800 mM potassium fluoride, 0.2% BSA, 0.2 μM streptavidin-XLent (from CisBio), 9.6 nM anti-phospho-Akt antibody (from Cell Signalling Technology), 4 nM protein-A-Eu(K) (from CisBio)]. The fluorescence emission at 620 nm and 665 nm after excitation with light of the wavelength 350 nm was measured in a Rubystar HTRF instrument from BMG Labsystems.
The measured data (ratio of emission 665 divided by emission 620 multiplied by 10 000) were normalized to 0% inhibition (enzyme reaction without inhibitor) and 100% inhibition (all assay components apart from enzyme). The IC50 values were determined by means of a 4-parameter fit using the company's own software.

Regarding `CCOC(=O)N=S(C)(=O)c1ccc2cc1NCCCCNc1nc(ncc1Br)N2` (single isomer, unassigned) [Example 3], the IC50 stood at 77 nM at Aurora-A, 990 nM on CDK2/CycE and 6840 nM on Chk1.

`CCCOC(=O)N=S(C)(=O)c1ccc2cc1OCCCCNc1nc(ncc1Br)N2` (racemic) [Example 8, (RS)—S-[1^5-Bromo-4-oxa-2,9-diaza-1(2,4)-pyrimidina-3(1,3)-benzenacyclononaphan-3^4-yl]-S-methyl-N-(propoxycarbonyl)sulphoximide]: the IC50 against CDK2/CycE was > 1000 nM; against Chk1 it was > 20000 nM.

Consider `CCNC(=O)N=S(C)(=O)c1ccc2cc1NCCCCNc1nc(ncc1Br)N2` (racemic) [Example 6, (RS)—S-[1^5-Bromo-2,4,9-triaza-1(2,4)-pyrimidina-3(1,3)-benzenacyclononaphan-3^4-yl]-N-(ethylcarbamoyl)-S-methylsulphoximide], for which the half-maximal inhibitory concentration (IC50) came to 21 nM at Aurora-A, 71 nM against CDK2/CycE and 3770 nM on Chk1.

With `CCOC(=O)N=S(C)(=O)c1ccc2cc1NCCCCNc1nc(ncc1Br)N2` (single isomer, unassigned) [Example 2], the values for the IC50 against Aurora-A, against CDK2/CycE and on Chk1 were 26 nM, 229 nM and 3630 nM, respectively.

For `C[Si](C)(C)CCS(=O)(=O)N=S(C)(=O)c1ccc2cc1NCCCCNc1nc(ncc1Br)N2` (racemic) [Example 5, (RS)—S-[1^5-Bromo-2,4,9-triaza-1(2,4)-pyrimidina-3(1,3)-benzenacyclononaphan-3^4-yl]-S-methyl-N-[2-(trimethylsilyl)ethylsulphonyl]sulphoximide], the IC50 against Aurora-A is 844 nM; against CDK2/CycE, > 1000 nM; against Chk1, > 20000 nM.

Take `CCOC(=O)N=S(C)(=O)c1ccc2cc1NCCCCNc1nc(ncc1Br)N2` (racemic) [Example 1, (RS)—S-[1^5-Bromo-2,4,9-triaza-1(2,4)-pyrimidina-3(1,3)-benzenacyclononaphan-3^4-yl]-N-(ethoxycarbonyl)-S-methylsulphoximide]: the half-inhibitory concentration (IC50) worked out at 27 nM against Aurora-A, 323 nM on CDK2/CycE and 4640 nM against Chk1.

On to `C[Si](C)(C)CCS(=O)(=O)N=S(C)(=O)c1ccc2cc1OCCCCNc1nc(ncc1Br)N2` (racemic) [Example 9, (RS)—S-[1^5-Bromo-4-oxa-2,9-diaza-1(2,4)-pyrimidina-3(1,3)-benzenacyclononaphan-3^4-yl]-S-methyl-N-[2-(trimethylsilyl)ethylsulphonyl]sulphoximide], for which the IC50 against Aurora-A is 652 nM; against CDK2/CycE, > 1000 nM; against Chk1 it was > 12500 nM.

In the case of `CCCS(=O)(=O)N=S(C)(=O)c1ccc2cc1NCCCCNc1nc(ncc1Br)N2` (racemic) [Example 7, (RS)—S-[1^5-Bromo-2,4,9-triaza-1(2,4)-pyrimidina-3(1,3)-benzenacyclononaphan-3^4-yl]-S-methyl-N-(propylsulphonyl)sulphoximide], the IC50 at Aurora-A is 44 nM; on CDK2/CycE, > 1000 nM; against Chk1, > 20000 nM.

As for `CCOC(=O)N=S(C)(=O)c1ccc2cc1NCCCCNc1nc(ncc1I)N2` (racemic) [Example 4, (RS)—N-(Ethoxycarbonyl)-S-[1^5-iodo-2,4,9-triaza-1(2,4)-pyrimidina-3(1,3)-benzenacyclononaphan-3^4-yl]-S-methylsulphoximide], the IC50 amounted to 31 nM at Aurora-A, 319 nM against CDK2/CycE and 1850 nM against Chk1.
